Experimental data from ChEMBL document CHEMBL1129297 (J Med Chem, 1996).

Experiments:
[1] = target: T1, 5-hydroxytryptamine receptor 1A (Homo sapiens, UniProt P08908)
T1 sequence (P08908 whole entry): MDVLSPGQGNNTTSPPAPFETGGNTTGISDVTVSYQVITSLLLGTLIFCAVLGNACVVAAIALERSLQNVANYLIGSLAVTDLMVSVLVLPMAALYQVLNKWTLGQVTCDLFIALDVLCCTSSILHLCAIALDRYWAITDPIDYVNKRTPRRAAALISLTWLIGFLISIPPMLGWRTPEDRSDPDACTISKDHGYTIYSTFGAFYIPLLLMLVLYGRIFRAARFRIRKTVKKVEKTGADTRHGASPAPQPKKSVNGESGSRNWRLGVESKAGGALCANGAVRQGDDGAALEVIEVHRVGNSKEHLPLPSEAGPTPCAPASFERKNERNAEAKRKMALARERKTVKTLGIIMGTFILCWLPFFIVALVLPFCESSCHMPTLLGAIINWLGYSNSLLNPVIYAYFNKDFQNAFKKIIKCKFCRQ

[2] = target: T2, 5-hydroxytryptamine receptor 1B (Homo sapiens, UniProt P28222); test: Displacement of [3H]-5-HT from human 5-hydroxytryptamine 1D receptor beta
T2 sequence (P28222 whole entry): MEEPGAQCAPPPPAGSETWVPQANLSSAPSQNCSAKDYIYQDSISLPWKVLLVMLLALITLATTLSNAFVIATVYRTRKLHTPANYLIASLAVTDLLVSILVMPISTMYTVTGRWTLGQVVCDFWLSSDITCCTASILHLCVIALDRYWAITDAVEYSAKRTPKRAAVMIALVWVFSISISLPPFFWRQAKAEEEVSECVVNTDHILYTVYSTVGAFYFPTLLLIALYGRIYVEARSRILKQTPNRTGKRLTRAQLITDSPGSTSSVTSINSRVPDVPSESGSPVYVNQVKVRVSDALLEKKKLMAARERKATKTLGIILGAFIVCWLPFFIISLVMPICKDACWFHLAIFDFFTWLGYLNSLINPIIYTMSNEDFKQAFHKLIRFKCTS

[3] = target: T3, 5-hydroxytryptamine receptor 1D (Homo sapiens, UniProt P28221)
T3 sequence (P28221 whole entry): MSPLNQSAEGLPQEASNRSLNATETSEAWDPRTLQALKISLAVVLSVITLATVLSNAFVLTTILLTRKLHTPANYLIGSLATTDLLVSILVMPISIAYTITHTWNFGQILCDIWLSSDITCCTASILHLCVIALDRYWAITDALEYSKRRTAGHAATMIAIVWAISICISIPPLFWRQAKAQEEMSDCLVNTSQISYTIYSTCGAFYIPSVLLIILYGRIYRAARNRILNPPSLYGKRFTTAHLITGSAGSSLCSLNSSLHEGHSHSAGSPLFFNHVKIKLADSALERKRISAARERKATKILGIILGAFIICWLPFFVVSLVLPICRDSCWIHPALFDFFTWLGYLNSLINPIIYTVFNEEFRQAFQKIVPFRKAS

[4] = target: T2, 5-hydroxytryptamine receptor 1B; test: Binding affinity towards cloned human 5-hydroxytryptamine 1D receptor was determined using […] as radioligand
[5] = target: T2, 5-hydroxytryptamine receptor 1B
[6] = target: T3, 5-hydroxytryptamine receptor 1D; test: Binding affinity of compound against 5-HT1Dalpha Binding affinity of compound against 5-HT1D alpha receptors in human
Cavia porcellus = organism: Cavia porcellus; test: Dissociation constant using guinea pig caudate membrane homogenate.; assay type: ADME

Row | SMILES | Ki [1] [µM] | Ki [3] [µM] | also measured
1 | CCc1ccc2[nH]cc(CCN)c2c1 | 0.02 |  | 
2 | CC(C)(C)CCCCCCCOc1ccc2[nH]cc(CCN)c2c1 | 0.063 |  | 
3 | COc1ccc2[nH]c3c(c2c1)CC(N)CC3 (configuration not stated) |  | 1.19 | Ki [2]: 0.342 µM
4 | CCCCCCCCCOc1ccc2[nH]c3c(c2c1)CCN(C)C3 |  |  | Ki [4]: > 1 µM
5 | CCCCCCOc1ccc2[nH]c3c(c2c1)CC(N)CC3 (configuration not stated) |  | 1.1 | Ki [5]: 0.188 µM
6 | CCCOc1ccc2[nH]cc(CCN)c2c1 | 0.088 |  | 
7 | CCCCCCCCCCCOc1ccc2[nH]cc(CCN)c2c1 | 0.885 | 0.069 | 
8 | NCCc1c[nH]c2ccc(OCCCCC3CCCCC3)cc12 | 0.8 | 0.055 | 
9 | COc1ccc2[nH]c3c(c2c1)CC(N(C)C)CC3 (configuration not stated) |  |  | Ki [5]: > 1 µM
10 | CCCCCCCCCOc1ccc2[nH]c3c(c2c1)CC(N)CC3 (configuration not stated) |  |  | Ki [6]: 2.35 µM; Ki [5]: 0.172 µM
11 | CC(C)(C)CCCCCCOc1ccc2[nH]cc(CCN)c2c1 | 0.92 | 0.016 | 
12 | CC(C)CCCCCCOc1ccc2[nH]cc(CCN)c2c1 |  | 0.042 | 
13 | CCCCCCCCCCOc1ccc2[nH]cc(CCN)c2c1 | 0.575 | 0.042 | 
14 | NC(=O)c1ccc2[nH]c3c(c2c1)CC(N)CC3 (configuration not stated) |  |  | Ki [5]: 0.01 µM; pKD (Cavia porcellus): 8
15 | CCCCCOc1ccc2[nH]cc(CCN)c2c1 | 0.042 | 0.0015 | 
16 | CCCCCCCOc1ccc2[nH]cc(CCN)c2c1 | 0.038 | 0.0049 | 
17 | CCCCCCCCC(=O)Oc1ccc2[nH]cc(CCN(C)C)c2c1 | 0.0093 |  | 
18 | CCCCCCCCCCc1ccc2[nH]c3c(c2c1)CC(N)CC3 (configuration not stated) |  |  | Ki [4]: > 1 µM
19 | CCCCCCCCCOc1ccc2[nH]cc(CCN(C)C)c2c1 | 0.575 |  | 
20 | CCC(=O)Oc1ccc2[nH]cc(CCN(C)C)c2c1 | 0.405 |  | 
21 | CCCCCCCCOc1ccc2[nH]cc(CCN)c2c1 |  | 0.0016 | 
22 | CCCCCCCCCCc1ccc2[nH]cc(CCN)c2c1 |  | 0.21 | 
23 | CCCCCCCCCOc1ccc2[nH]cc(CCNCCCC)c2c1 | 1.55 | 0.223 | 
24 | CCc1ccc2[nH]cc(CCN(C)C)c2c1 | 0.015 |  | 
25 | COc1ccc2[nH]cc(CCN)c2c1 [5-METHOXYTRYPTAMINE] | 0.0032 |  | 
26 | CC(=O)c1ccc2[nH]cc(CCN)c2c1 [ACETRYPTINE] | 0.0013 |  | 
